According to patent KR20070023630A, “티로신 키나제 억제제로서의 퀴나졸린 유도체” (아스트라제네카 아베, priority 2003, dated 2005):

test system: erbB2 phosphorylation in MCF7-derived cell line (MCF7 유래의 세포주에서 erbB2의 인산화); experiment: Test (c): clone 24 phospho-erbB2 cell assay; format: cell-based; conditions: Homo sapiens, clone 24 cells (MCF7-derived, overexpressing full-length erbB2), read-out: IC50 test (c): inhibition of erbB2 tyrosine kinase protein phosphorylation

SMILES	IC50
CN(C)CC(=O)N1CCC(Oc2ccc3ncnc(Nc4ccc(OCc5ccccn5)c(Cl)c4)c3c2)CC1 [실시예 8, N-[3-클로로-4-(피리딘-2-일메톡시)페닐]-6-({1-[(디메틸아미노)아세틸]피페리딘-4-일}옥시)퀴나졸린-4-아민]	210 nM
CN(C)CC(=O)N1CCC(Oc2ccc3ncnc(Nc4ccc(OCc5cnccn5)c(Cl)c4)c3c2)CC1 [실시예 9, N-[3-클로로-4-(피라진-2-일메톡시)페닐]-6-({1-[(디메틸아미노)아세틸]피페리딘-4-일}옥시)퀴나졸린-4-아민]	150 nM
CS(=O)(=O)N1CCC(COc2ccc3ncnc(Nc4ccc(OCc5ccccn5)c(Cl)c4)c3c2)C1 (stereo not drawn) [실시예 14, N-[3-클로로-4-(피리딘-2-일메톡시)페닐]-6-{[1-(메틸술포닐)피롤리딘-3-일]메톡시}퀴나졸린-4-아민]	4 nM
